In patent US6858774B2, “MDR-like ABC transporter gene from plants” (Wisconsin Alumni Research Foundation, priority 1998, dated 2005):

How the values were obtained:
[1] = system: wild type Arabidopsis seedlings; assay: Treatment of wild type seedlings, morphological phenotype; assay type: in vivo, Arabidopsis thaliana; settings: 2,4-D or high concentrations of auxin
Source text: Expression of the plPAC gene of the present invention is inducible by auxin as described below in Example 4. Treatment of wild type Arabidopsis seedlings with 2,4-D or high concentrations of auxin result in plants with the same phenotype as that of ATPAC mutant plants. […] Under this model, tissues that express this pump would accumulate auxin as a result of the mutation and the altered auxin balance could be responsible for the altered growth patters typifying the ATPAC phenotype. Further support of this model is the similarity of auxin to indolylic substrates pumped by human MDR1, and the finding that ATPAC expression is increased by auxin.

ATPAC = target: T1, ATPAC (Arabidopsis thaliana, UniProt Q9LJX0, DUP906-907/P1064L); assay: NPA binding to yeast expressing ATPAC
T1 construct: The 3.76 kb cDNA clone encodes a polypeptide 1,254 amino acids in length; expressed in transfected cells; host or cells: yeast (wild type and a strain lacking seven ABC transporters)
T1 sequence (Q9LJX0 other isoform, or with tags, fused parts or gaps DUP906-907/P1064L): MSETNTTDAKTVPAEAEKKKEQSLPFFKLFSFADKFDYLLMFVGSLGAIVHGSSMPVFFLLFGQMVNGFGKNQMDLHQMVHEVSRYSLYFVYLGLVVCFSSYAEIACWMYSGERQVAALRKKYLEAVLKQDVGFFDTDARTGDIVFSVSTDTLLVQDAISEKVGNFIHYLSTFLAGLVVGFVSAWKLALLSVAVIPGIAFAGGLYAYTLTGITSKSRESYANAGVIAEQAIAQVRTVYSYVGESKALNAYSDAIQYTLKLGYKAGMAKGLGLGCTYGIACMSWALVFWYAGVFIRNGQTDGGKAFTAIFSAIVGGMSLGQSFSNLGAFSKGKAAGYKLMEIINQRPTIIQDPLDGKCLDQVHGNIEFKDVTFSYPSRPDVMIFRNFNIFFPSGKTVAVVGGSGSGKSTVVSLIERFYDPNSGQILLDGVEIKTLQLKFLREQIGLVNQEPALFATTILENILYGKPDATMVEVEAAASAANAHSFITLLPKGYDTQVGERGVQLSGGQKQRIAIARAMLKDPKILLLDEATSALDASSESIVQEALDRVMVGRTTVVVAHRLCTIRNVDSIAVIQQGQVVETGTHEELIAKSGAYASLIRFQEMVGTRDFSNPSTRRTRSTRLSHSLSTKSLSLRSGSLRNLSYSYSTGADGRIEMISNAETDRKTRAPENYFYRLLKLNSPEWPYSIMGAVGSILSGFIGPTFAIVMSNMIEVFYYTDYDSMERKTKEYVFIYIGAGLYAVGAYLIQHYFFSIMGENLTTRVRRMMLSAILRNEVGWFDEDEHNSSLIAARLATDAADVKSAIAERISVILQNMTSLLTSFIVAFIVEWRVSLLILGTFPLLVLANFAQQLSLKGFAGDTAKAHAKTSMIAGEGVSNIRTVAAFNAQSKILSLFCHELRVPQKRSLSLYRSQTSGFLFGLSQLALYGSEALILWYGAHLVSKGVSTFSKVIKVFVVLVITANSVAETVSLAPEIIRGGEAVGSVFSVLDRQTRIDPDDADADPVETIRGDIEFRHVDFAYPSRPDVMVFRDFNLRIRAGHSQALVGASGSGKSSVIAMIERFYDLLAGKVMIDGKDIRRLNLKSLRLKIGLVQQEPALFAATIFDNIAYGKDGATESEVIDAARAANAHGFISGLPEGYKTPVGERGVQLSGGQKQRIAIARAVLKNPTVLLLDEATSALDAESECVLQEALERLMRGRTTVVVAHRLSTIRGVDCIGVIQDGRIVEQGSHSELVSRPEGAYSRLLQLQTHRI
Source text: Expression in Yeast and Xenopus Oocytes. ATPAC cDNA was expressed in wild type yeast as well as in yeasts lacking seven ABC transporters (as described by Decottignies et al., (1998) J. Biol. Chem. 273:12612-22)in order to create a heterologous system for studying function of the transporter. The yeasts were exposed to toxic compounds that are known substrates for human MDR1. […] Further, there was no evidence of a drug-pumping role for ATPAC.
ATPAC Binds the Auxin Transport Inhibitor naphthylphthalamic acid (NPA). Yeast expressing ATPAC was assayed for NPA binding. […] Bound NPA was not displaced by benzoic acid, a related hydrophobic organic acid. Proteins that bind NPA and influence auxin transport are considered important regulators of hormone action and therefore, of plant development.

## O=C(O)COc1ccc(Cl)cc1Cl [2,4-D]
[1]
  Phenotype of treated wild type seedlings: strongly curved organs

## O=C(O)c1ccccc1C(=O)Nc1cccc2ccccc12 [NPA, naphthylphthalamic acid]
ATPAC; ATPAC-expressing yeast
  NPA binding to ATPAC-expressing yeast: bound tightly and specifically
ATPAC; control yeast
  NPA binding to control yeast: not to control yeast

## O=C(O)Cc1c[nH]c2ccccc12 [auxin]
[1]
  Phenotype of treated wild type seedlings: strongly curved organs

## O=C(O)c1ccccc1 [benzoic acid]
ATPAC; ATPAC-expressing yeast, bound NPA
  Displacement of bound NPA: not displaced
